Key:
[1] = test system: PPARγ-RXRα heterodimer; assay: PPARγ-RXRα heterodimer formation assay; format: biochemical
[2] = test system: human adipocyte-derived stem cells (ASC; ASC52telo, hTERT); assay: Adipocyte-derived stem cell differentiation; format: cell-based
[3] = test system: COS7 cells; assay: Toxicity assay; format: cell-based; settings: up to 100 μM, 24 h
[4] = target: T1, PPARγ LBD (Homo sapiens, UniProt P37231); format: biochemical
T1 sequence (P37231 238-503 limits assumed): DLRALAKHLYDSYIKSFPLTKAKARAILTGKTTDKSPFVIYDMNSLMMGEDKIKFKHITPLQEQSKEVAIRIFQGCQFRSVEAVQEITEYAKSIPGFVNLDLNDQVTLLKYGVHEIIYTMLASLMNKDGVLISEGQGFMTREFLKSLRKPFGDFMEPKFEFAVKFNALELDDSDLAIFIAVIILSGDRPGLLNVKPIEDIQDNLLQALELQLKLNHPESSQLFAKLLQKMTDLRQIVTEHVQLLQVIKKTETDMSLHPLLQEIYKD

[5] = test system: HepG2 cells; assay: Differential gene expression; format: cell-based; settings: 20 μM
[6] = target: T1, PPARγ LBD; assay: MS-based PPARγ ligand binding assay; settings: 0.2–4 μM, absence and presence of 1 μM pioglitazone
[7] = test system: human PPAR response element (PPRE); assay: PPRE reporter assay in HepG2 cells; format: cell-based
[8] = test system: nuclear receptors; assay: Selectivity profiling in Gal4-hybrid reporter gene assays; format: cell-based, human; settings: 100 μM
[9] = target: T1, PPARγ LBD; format: binding
[10] = test system: FOXO3a; assay: FOXO3a Ser253 phosphorylation; format: cell-based; settings: 20 μM, 16 h
[11] = test system: FOXO; assay: FoxO response element; format: cell-based; settings: HepG2 cells, over time
[12] = test system: genes comprising a PPAR response element; settings: cited from earlier work

## CC1(C)CCC(C)(C)c2cc(C3(c4ccc(C(=O)O)cc4)OCCO3)ccc21 [SR11237, reference compound]
[1]
  PPARγ:RXR heterodimerization: enhanced

## O=C(O)CSc1nc(Cl)cc(Nc2cccc(OCCc3ccccc3)c2)n1 [compound 2]
[2]
  pioglitazone-induced adipogenesis: diminished
[2]; 50 μM
  adipogenesis (ASC differentiation): did not cause adipogenesis
[3]
  cytotoxic effects (apoptosis, necrosis): no cytotoxic effects
[4]
  CBP-1 recruitment: displaced
  DRIP2 recruitment: displaced
  NCOR recruitment: enhanced binding
  NCoA6 recruitment: weaker recruitment
  PGC-1α recruitment: weaker recruitment
  SMRT recruitment: enhanced binding
[1]
  PPARγ:RXR heterodimerization: decreased heterodimer formation
  dimer stabilization by pioglitazone: abrogated
[5]
  canonical PPAR signaling (gene expression): no induction
[5]; p-value <0.05, |log2(fold change)| > 1
  number of protein coding genes with significantly altered expression: 1750
[6]
  binding of 2 to the PPARγ LBD: dose-dependent manner
[7]; alone
  transcriptional activity via PPRE: induced transcriptional activity
[7]; with pioglitazone
  pioglitazone-mediated PPRE activation: enhanced pioglitazone-mediated PPRE activation
[8]
  agonism / antagonism on nuclear receptors: neither revealed agonism nor antagonistic effects
[9]
  thermal stabilization of the PPARγ LBD: additive thermal stabilization
[10]
  phosphorylation of FOXO3a at Ser253: promoted phosphorylation
[11]
  transcriptional activity of FOXO (FHRE activity): diminished

## CCc1ccc(CCOc2ccc(CC3SC(=O)NC3=O)cc2)nc1 (centres unmarked) [pioglitazone, reference compound]
[12]
  FOXO signaling-related gene expression: no effect
[1]
  PPARγ:RXR heterodimerization: enhanced
